The source of these data is ChEMBL document CHEMBL5465560, “Selectivity Literature for EUbOPEN Chemogenomic Library” (2024).

Test [1] has as its target Cyclin-dependent kinase 5 (Homo sapiens, UniProt Q00535). The test is described as follows: Selectivity interaction (Kinase panel (enzymatic assay)) EUB0000595a CDK5.
In test [2] the target is T1, Phosphatidylinositol 4,5-bisphosphate 3-kinase catalytic subunit delta isoform (Homo sapiens) (UniProt O00329).
T1 sequence (whole entry): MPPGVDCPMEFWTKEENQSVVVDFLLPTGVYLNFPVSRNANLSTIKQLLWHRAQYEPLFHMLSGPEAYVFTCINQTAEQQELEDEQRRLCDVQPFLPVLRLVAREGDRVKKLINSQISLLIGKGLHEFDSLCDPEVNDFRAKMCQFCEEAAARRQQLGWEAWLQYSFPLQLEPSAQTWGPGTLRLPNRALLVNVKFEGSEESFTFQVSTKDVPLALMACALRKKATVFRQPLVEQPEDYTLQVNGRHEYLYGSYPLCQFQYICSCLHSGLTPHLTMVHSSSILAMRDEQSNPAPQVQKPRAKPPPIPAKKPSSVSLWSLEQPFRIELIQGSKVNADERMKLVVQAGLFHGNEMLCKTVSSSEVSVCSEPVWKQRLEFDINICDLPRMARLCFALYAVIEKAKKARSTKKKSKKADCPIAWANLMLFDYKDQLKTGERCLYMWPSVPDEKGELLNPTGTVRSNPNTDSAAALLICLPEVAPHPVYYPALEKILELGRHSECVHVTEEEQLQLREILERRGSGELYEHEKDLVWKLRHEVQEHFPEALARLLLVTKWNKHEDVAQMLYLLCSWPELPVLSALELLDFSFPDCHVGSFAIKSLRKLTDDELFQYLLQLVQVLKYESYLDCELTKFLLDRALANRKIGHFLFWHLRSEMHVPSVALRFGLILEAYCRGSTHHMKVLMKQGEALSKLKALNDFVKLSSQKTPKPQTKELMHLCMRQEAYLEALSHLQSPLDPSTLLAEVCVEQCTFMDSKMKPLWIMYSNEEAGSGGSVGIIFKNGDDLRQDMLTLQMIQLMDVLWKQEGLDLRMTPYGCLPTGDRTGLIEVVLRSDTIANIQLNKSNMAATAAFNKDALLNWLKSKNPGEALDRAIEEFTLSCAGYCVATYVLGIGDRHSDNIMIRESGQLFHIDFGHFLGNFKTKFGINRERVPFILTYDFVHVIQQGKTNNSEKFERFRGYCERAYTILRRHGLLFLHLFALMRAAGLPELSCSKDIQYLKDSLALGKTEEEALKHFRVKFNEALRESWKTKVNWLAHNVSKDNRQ
Description: Selectivity interaction (KinomeScan (DiscoverX)) EUB0000695a PIK3CD. Particulars: at 100 nM.

Test [3] has as its target Wee1-like protein kinase (Homo sapiens) (UniProt P30291). Description: Selectivity interaction (Kinase panel (Invitrogen)) EUB0000639a WEE1. The note with it: at 200 nM.
The target in test [4] is T2, Phosphatidylinositol 5-phosphate 4-kinase type-2 gamma (Homo sapiens) (UniProt Q8TBX8).
T2 sequence (whole entry): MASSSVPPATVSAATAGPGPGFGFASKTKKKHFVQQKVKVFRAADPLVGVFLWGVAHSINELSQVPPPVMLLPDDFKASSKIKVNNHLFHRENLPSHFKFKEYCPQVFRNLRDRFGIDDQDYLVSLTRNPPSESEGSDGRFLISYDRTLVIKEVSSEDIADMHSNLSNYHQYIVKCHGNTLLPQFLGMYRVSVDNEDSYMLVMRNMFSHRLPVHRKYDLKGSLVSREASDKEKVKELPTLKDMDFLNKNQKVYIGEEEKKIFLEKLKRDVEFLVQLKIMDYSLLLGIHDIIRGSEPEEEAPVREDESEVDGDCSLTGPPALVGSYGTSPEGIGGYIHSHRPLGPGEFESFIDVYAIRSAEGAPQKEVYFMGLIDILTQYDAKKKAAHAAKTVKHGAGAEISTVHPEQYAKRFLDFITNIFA
Description: Selectivity interaction (ActivX KiNativ screen (kinase selectivity in THP-1 cell lysates)) EUB0000639a PIP4K2C. It is filed as subcellular. Particulars: lysate, at 0.01 µM.

For test [5], the target named is Ribosomal protein S6 kinase alpha-3 (Homo sapiens, UniProt P51812). Description: Selectivity interaction (ActivX KiNativ screen (kinase selectivity in THP-1 cell lysates)) EUB0000639a RPS6KA3. Particulars: lysate, at 0.2 µM. In kind it is subcellular.
Sequence of Ribosomal protein S6 kinase alpha-3 (P51812 whole entry): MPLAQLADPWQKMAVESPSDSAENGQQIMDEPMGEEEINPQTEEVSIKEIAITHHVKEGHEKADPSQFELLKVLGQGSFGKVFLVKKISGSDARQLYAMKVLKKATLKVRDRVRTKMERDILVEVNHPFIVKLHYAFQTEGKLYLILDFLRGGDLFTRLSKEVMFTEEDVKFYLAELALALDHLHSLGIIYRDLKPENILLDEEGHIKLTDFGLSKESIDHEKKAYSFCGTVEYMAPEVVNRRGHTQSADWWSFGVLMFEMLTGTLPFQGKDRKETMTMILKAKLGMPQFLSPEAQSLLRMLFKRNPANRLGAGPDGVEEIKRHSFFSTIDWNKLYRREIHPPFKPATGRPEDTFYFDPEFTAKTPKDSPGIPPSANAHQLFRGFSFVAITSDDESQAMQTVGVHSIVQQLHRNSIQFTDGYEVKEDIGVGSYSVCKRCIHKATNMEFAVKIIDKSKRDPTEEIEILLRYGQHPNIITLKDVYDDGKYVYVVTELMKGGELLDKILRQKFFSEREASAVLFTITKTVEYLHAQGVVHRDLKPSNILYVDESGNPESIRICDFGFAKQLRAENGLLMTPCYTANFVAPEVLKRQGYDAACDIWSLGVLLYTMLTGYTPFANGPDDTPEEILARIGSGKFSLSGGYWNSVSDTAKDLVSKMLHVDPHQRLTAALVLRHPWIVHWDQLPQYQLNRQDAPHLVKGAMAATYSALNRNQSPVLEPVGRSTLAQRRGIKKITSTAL
Test [6] has as its target T3, Calcium/calmodulin-dependent protein kinase type IV (Homo sapiens) (UniProt Q16566).
T3 sequence (whole entry): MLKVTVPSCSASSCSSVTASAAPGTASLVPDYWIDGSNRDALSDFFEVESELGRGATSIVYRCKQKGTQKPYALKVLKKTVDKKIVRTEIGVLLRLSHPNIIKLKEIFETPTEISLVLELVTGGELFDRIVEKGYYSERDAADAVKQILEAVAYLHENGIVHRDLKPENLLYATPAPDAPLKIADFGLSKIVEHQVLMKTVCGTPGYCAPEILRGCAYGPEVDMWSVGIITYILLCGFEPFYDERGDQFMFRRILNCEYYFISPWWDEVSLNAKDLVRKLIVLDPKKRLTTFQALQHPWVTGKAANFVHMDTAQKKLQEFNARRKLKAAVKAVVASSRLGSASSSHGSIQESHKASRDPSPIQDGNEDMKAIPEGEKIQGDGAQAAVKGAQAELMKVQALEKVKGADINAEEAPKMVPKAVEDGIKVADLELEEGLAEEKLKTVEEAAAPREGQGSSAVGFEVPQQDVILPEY
Description: Selectivity interaction (ProQinase) EUB0000171b CAMK4.

Test [7] addresses T4, Serine/threonine-protein kinase Sgk2 (Homo sapiens) (UniProt Q9HBY8).
T4 sequence (whole entry): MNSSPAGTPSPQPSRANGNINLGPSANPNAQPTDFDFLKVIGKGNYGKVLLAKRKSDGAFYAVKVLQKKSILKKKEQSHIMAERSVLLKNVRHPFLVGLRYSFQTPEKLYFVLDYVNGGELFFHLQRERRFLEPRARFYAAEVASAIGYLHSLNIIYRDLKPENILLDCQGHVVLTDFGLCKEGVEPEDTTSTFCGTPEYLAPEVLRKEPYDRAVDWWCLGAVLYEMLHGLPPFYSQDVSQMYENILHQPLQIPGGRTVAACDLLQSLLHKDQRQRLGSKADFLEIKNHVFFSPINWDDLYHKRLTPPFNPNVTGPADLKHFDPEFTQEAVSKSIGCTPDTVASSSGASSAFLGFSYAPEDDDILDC
Description: Selectivity interaction (Upstate Kinase Profiler service (Millipore)) EUB0000056c SGK2. Particulars: at 1 µM.

Test [8] addresses Tyrosine-protein kinase JAK1 (Homo sapiens, UniProt P23458). Description: Selectivity interaction (KinomeScan (DiscoverX)) EUB0000092b JAK1. Particulars: at 10 µM.
The target of test [9] is 5-hydroxytryptamine receptor 2A (Homo sapiens, UniProt P28223). Description: Selectivity interaction (Panel of kinases, GPCRs, ion channels and transporters (enzymatic assay)) EUB0000266bCl HTR2A.
Sequence of 5-hydroxytryptamine receptor 2A (P28223 whole entry): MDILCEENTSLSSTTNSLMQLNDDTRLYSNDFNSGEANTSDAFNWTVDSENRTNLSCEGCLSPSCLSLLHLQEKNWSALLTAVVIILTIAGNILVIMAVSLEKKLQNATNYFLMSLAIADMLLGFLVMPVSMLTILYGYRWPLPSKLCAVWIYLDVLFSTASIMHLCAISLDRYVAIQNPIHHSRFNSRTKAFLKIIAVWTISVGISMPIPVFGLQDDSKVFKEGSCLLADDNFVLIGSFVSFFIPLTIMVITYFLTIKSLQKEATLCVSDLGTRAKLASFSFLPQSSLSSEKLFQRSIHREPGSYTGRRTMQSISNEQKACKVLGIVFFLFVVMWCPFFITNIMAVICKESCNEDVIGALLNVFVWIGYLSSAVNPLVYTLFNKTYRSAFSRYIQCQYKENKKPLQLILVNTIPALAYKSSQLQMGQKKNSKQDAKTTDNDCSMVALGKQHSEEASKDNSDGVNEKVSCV
For test [10], the target named is Dual specificity protein kinase CLK1 (Homo sapiens, UniProt P49759). Description: Selectivity interaction (KinomeScan (DiscoverX)) EUB0000229b CLK1. Particulars: at 10 µM.
Sequence of Dual specificity protein kinase CLK1 (P49759 whole entry, looked up): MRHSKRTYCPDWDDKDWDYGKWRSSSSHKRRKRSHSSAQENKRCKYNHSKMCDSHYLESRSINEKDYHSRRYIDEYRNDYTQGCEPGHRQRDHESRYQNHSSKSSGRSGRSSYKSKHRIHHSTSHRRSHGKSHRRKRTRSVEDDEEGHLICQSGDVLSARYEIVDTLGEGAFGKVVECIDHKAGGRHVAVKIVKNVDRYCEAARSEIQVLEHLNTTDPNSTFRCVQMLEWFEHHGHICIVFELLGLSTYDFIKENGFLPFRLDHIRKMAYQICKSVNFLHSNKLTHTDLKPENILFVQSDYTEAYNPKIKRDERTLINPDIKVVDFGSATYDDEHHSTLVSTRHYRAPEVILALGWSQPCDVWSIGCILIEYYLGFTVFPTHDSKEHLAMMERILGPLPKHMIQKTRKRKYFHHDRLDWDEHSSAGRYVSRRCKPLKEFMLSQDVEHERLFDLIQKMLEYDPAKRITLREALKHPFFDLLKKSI

As a reminder, the IC50 is the point on the concentration scale where inhibition reaches its midpoint.

Sequence of Tyrosine-protein kinase JAK1 (P23458 whole entry): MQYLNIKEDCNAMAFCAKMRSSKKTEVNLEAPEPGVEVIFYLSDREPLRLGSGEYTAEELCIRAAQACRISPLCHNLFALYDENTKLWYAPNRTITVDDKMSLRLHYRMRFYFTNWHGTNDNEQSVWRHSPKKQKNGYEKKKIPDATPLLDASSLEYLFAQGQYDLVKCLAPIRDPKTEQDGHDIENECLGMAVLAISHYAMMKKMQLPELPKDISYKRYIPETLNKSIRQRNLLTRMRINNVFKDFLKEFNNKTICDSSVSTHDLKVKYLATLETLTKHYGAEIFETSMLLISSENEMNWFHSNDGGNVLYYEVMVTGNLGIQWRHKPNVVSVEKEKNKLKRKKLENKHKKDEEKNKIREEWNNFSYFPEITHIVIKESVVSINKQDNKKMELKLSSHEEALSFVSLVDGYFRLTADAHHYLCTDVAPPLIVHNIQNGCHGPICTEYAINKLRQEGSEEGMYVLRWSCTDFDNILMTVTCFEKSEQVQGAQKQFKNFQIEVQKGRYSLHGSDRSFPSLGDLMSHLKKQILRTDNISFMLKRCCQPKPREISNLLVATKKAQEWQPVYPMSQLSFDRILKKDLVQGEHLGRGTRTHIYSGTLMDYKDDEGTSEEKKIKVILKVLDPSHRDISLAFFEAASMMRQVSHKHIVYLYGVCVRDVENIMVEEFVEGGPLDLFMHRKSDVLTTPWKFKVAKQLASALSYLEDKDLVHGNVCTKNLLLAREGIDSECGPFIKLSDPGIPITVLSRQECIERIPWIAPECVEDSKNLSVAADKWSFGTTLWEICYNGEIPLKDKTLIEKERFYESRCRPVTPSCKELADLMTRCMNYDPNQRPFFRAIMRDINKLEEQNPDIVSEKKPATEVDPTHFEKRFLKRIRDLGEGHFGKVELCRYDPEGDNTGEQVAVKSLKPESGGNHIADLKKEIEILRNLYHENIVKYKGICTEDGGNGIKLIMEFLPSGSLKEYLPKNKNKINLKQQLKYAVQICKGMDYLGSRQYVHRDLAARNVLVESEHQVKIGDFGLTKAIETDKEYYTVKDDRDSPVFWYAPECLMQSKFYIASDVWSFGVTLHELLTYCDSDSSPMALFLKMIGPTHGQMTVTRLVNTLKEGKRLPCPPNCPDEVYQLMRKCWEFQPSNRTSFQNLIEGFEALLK
Sequence of Wee1-like protein kinase (Homo sapiens) (P30291 whole entry, looked up): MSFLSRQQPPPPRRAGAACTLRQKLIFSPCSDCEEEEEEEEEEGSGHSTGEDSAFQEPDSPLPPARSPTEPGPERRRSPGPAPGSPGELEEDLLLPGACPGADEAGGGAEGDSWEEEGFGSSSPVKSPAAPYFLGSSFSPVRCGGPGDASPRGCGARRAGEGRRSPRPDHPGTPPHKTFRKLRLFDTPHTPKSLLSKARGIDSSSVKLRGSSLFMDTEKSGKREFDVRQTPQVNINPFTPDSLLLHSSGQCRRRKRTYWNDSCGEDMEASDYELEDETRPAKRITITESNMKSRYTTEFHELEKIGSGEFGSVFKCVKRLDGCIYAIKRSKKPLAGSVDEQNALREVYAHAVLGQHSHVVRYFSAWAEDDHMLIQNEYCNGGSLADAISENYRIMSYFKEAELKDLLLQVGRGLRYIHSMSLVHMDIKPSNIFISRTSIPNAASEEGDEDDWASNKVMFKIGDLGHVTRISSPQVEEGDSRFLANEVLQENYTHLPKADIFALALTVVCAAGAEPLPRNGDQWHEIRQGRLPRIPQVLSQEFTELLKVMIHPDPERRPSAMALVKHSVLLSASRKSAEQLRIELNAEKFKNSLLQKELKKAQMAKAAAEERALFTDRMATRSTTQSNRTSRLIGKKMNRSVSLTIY
Sequence of Cyclin-dependent kinase 5 (Q00535 whole entry, canonical isoform): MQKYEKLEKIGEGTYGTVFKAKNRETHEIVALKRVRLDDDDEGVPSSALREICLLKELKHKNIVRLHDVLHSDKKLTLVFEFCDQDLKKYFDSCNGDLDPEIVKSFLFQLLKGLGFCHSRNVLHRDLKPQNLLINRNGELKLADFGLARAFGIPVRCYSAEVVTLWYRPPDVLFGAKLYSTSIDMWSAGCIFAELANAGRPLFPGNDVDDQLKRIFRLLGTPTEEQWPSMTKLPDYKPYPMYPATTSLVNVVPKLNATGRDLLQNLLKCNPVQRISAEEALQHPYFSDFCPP

`COCC(=O)NC/C=C/c1ccc2ncnc(Nc3ccc(Oc4ccc(C)nc4)c(C)c3)c2c1` [CP-724714] came in with an IC50 in test [1] greater than 10 µM.

`Cc1cc(F)c(C(=O)Nc2cccc(-c3nncn3C(C)C)n2)cc1-n1cnc(C2CC2)c1` showed a % of control in test [2] of 92%. With `CC[C@@H]1[C@H](F)C(=O)N[C@@H]1COc1nccc2cc(C(N)=O)c(OC)cc12` [ZIMLOVISERTIB], the % of inhibition is -0.606% in [3], 7.3% in test [4] and -3.7% in test [5]. Regarding `C=CC(=O)Nc1cccc(C(=O)Nc2ccc(Nc3cc(-c4[nH]c(SC)nc4C)ccn3)cc2)c1`, the % of control in test [6] (at 1 µM) is 110%; in [6] (at 5 µM), 91%.

On to `Cc1ccc(-c2ccc3c(ccc4sc5c(c43)NC[C@@H](C)NC5=O)n2)cn1`, for which the % of inhibition in [7] was found to be 3%.

In test [8], `CCC(=O)N1CCN(c2ccc(-n3c(=O)ccc4cnc5ccc(-c6cnc7ccccc7c6)cc5c43)cc2C(F)(F)F)CC1` showed a % of control of 76%. Compound `CCn1c(-c2nc3cc(C(=O)N4CCCC(N)C4)ccc3n2C)cc2ccccc21` (stereo unspecified) came in with a pXC50 in [9] of 5.3 M. With `COc1cc(N(C)c2ccnc3ccc(C(F)(F)F)cc23)cc(OC)c1OC`, in test [10], the % binding is 84%.
